What follows are molecules tested against T1, Monocarboxylate transporter 1 (Rattus norvegicus) (UniProt P53987) (assay: Inhibition of rat MCT1 expressed in human MDA-MB-231 cells in presence of [3H]-GHB by liquid scintillation spectroscopy analysis). Details: concentration not given here.
T1 sequence (whole entry): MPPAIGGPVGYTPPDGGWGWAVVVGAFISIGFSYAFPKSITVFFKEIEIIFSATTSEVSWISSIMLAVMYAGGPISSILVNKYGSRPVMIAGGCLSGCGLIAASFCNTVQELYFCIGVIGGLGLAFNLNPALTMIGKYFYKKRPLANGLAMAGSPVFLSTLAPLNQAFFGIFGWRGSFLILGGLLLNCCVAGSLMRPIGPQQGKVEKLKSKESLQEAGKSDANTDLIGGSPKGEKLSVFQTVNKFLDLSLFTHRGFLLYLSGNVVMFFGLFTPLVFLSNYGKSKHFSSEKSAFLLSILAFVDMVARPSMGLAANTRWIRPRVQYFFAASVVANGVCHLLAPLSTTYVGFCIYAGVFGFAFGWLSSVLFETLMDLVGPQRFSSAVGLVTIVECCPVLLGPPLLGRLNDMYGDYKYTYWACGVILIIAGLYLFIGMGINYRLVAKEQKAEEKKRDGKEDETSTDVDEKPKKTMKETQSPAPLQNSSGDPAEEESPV
Format: cell-based
Parameters: concentration or dose not given beside the values
Molecule `O=c1c(O)c(-c2ccc(O)c(O)c2)oc2cc(O)cc(O)c12` has an inhibition of 87%. In the case of `O=c1c(O)c(-c2ccc(O)cc2O)oc2cc(O)cc(O)c12`, the inhibition is reported as 100%. `O=c1c(O)c(-c2ccc(O)c(O)c2)oc2cc(O)ccc12` showed an inhibition of 93%. With `COc1ccc(-c2cc(=O)c3c(O)cc(O)cc3o2)cc1O` the inhibition was 49%. `O=c1cc(-c2ccc(O)c(O)c2)oc2cc(O)cc(O)c12` showed an inhibition of 100%. Work on `O=c1cc(-c2ccc(O)cc2)oc2cc(O)cc(O)c12` yielded an inhibition of 50%.
